From BindingDB's records for patent US11306081 (Bristol Myers Squibb, 2022)

Molecular target: Rho-associated protein kinase 2 (Homo sapiens, UniProt O75116)
Assay: In Vitro Assay
Experimental: The effectiveness of compounds of the present invention as ROCK inhibitors can be determined in a 30 μL assay containing 20 mM HEPES, pH 7.5, 20 mM MgCl2, 0.015% Brij-35, 4 mM DTT, 5 μM ATP and 1.5 μM peptide substrate (FITC-AHA-AKRRRLSSLRA-OH) (SEQ ID No. 1). Compounds were dissolved in DMSO so that the final concentration of DMSO was <2%, and the reaction was initiated with Rho kinase variants. After incubation, the reaction was terminated by the addition of EDTA and the phosphorylated and non-phosphorylated peptides separated using a LABCHIP 3000 Reader (Caliper Life Sciences). […] Compounds were tested in dose-response format, and the inhibition of kinase activity was calculated at each concentration of compound. The inhibition data were fit using a curve-fitting program to determine the IC50; i.e., the concentration of compound required to inhibit 50% of kinase activity.

Sequence of Rho-associated protein kinase 2 (O75116 whole entry): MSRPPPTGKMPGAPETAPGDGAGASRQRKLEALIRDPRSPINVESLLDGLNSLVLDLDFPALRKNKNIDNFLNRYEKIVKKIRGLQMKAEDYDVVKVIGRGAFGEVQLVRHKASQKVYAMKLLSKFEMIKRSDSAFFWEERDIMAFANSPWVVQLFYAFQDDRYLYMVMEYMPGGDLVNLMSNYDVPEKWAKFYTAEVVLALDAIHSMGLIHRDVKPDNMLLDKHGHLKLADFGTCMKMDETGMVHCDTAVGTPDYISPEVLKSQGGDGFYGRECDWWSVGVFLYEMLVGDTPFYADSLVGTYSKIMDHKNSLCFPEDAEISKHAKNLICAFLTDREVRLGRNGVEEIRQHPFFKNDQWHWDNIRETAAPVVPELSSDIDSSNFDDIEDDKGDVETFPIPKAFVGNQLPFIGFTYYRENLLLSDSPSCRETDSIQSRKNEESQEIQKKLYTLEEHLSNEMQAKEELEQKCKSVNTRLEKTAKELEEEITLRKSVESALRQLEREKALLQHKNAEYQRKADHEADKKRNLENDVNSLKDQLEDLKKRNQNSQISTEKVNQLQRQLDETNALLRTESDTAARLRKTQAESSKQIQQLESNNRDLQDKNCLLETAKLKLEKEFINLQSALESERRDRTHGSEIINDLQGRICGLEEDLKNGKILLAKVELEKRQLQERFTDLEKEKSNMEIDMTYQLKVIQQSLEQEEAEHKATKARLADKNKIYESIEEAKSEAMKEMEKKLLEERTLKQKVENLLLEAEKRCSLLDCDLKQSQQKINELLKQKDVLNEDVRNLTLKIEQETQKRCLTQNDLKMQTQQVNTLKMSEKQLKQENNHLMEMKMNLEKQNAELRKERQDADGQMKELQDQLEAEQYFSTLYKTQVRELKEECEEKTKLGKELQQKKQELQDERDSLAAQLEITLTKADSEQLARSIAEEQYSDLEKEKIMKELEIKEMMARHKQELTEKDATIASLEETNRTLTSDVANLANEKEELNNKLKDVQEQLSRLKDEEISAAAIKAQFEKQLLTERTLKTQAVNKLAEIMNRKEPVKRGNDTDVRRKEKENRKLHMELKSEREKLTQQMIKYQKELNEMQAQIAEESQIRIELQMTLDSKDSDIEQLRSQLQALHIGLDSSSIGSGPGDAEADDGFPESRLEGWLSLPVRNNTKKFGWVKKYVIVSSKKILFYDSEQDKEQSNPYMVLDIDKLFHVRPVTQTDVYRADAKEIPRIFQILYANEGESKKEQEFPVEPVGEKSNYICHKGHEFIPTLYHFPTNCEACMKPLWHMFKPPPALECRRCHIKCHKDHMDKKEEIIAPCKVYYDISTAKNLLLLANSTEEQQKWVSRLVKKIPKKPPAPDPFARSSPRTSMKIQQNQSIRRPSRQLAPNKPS

IC50: 8 nM
Compound: COc1ccc2sc(NC(=O)Cc3ccc(Oc4ncccc4C(N)=O)c(Cl)c3)nc2c1 [US11306081, Example 115]
